Legend:
murine primary T cells = experiment: ELISA of cytokines in supernatants of murine primary T cells stimulated with anti-CD3/CD28; type: cell-based, mouse; settings: 5 μM or 10 μM for 3 days
Method: Means±SD are shown, (b) ELISA of IL-17A in supernatants of human T cells. T cells were stimulated with anti-CD3/CD28 and treated with C1 (verteporfin) (1 μM or 5 μM) or C2 (1 μM or 5 μM) for 3 days. HC, healthy control; SLE, systemic lupus erythematosus; RA, rheumatoid arthritis; AS, ankylosing spondylitis; PsA, psoriatic arthritis; PSS, primary Sjögren's syndrome. Means±SD are shown. C1 denotes verteporfin; C2 denotes alexidine dihydrochloride.
We further studied whether IL-17A production is abolished by the inhibitors of GLK-induced AhR-RORγt complex in human and murine T cells. We first tested the inhibitor experiment using murine T cells stimulated with TCR signaling (anti-CD3 plus anti-CD28 antibodies). […] Next, we studied the blocking effect of IL-17 production by the treatment of C1 (verteporfin) or C2 (alexidine dihydrochloride) using human peripheral blood T cells. […] Taken together, GLK inhibitors (verteporfin and alexidine dihydrochloride) inhibit GLK-induced AhR-RORγt complex and IL-17A production in human autoimmune patient T cells, as well as the disease severity of autoimmune animal models. Thus, GLK, GLK signaling, or GLK-induced AhR-RORγt complex can be a promising therapeutic target for autoimmune diseases.

GLK dimers = biological target: T1, GLK dimers (Homo sapiens, UniProt Q8IVH8); experiment: Co-immunoprecipitation of Flag-tagged GLK and GFP-fusion GLK in HEK293T cells; type: cell-based; settings: HEK293T co-IP
T1 construct: expressed in transfected cells; host or cells: HEK293T
T1 sequence (Q8IVH8 whole entry, the tested form may be a part): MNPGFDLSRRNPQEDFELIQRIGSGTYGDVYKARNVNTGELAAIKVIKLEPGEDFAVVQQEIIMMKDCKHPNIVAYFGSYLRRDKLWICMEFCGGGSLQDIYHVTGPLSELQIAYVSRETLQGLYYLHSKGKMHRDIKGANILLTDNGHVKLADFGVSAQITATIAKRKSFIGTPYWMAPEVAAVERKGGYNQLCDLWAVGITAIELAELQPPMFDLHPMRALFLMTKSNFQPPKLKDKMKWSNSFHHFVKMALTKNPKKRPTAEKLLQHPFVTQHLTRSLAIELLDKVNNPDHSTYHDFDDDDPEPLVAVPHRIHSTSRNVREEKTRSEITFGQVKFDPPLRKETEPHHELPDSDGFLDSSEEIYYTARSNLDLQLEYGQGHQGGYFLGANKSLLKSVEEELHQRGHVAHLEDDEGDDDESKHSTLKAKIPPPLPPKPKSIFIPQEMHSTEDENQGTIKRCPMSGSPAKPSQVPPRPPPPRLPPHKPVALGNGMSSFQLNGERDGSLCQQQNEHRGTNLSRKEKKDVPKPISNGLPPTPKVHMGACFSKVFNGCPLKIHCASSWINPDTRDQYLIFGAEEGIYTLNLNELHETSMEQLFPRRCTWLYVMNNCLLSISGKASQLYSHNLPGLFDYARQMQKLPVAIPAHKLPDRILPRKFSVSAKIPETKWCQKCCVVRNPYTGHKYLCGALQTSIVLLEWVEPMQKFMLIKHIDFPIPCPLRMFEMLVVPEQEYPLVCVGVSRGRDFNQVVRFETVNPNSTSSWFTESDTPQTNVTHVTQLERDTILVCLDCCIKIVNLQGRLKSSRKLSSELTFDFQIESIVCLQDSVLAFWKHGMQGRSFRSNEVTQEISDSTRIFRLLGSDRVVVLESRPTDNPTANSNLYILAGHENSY
Text: (A) The molecular docking of GLK kinase domain structure with C1 (verteporfin). A three-dimensional structure model depicts the binding of C1 to the predicted GLK kinase domain containing phosphorylated Ser-170. The putative binding affinity was −7.4 kcal/mol. (B) The molecular docking of GLK kinase domain structure with C2 (alexidine dihydrochloride). A three-dimensional structure model depicts the binding of C2 to the predicted GLK kinase domain containing phosphorylated Ser-170. The putative binding affinity was −7.0 kcal/mol. (C) Co-immunoprecipitation (co-IP) of Flag-tagged GLK and GFP-fusion GLK using lysates of HEK293T cells co-transfected with Flag-GLK and GFP-GLK plasmids. Cells were treated with C1 (verteporfin) or C2 (alexidine dihydrochloride). (D) Administration of the GLK inhibitor C1 (0.556 nmole/g) or C2 (0.085 nmole/g) every 3 days for 30 days in the LLC/luc metastatic lung cancer mouse model. (E) The luciferase activity in mice treated with C1 (verteporfin), C2 (alexidine dihydrochloride), or vehicle was detected by IVIS Spectrum. (F) Luminescent intensity of photons emitted from LLC/luc cells in the images in (e) was quantified. (G) Representative immunohistochemistry of H&E in lung tissues from mice treated with C1 (verteporfin), C2, or vehicle. Scale bar, 0.5 cm. […]

dimerization of Flag-tagged GLK protein and GFP-GLK fusion protein (GLK dimers): blocked
Structure (SMILES): C=Cc1c(C)c2cc3nc(cc4[nH]c(cc5nc(cc1[nH]2)C(C)=C5CCC(=O)O)c(CCC(=O)OC)c4C)[C@@]1(C)C3=CC=C(C(=O)OC)[C@H]1C(=O)OC [C1, verteporfin]
TCR-induced IFN-γ level (murine primary T cells): partially reduced
TCR-induced IL-17A production (murine primary T cells): drastically abolished
TCR-induced IL-17B level (murine primary T cells): not decreased
TCR-induced IL-17E level (murine primary T cells): not decreased
TCR-induced IL-17F level (murine primary T cells): not decreased
TCR-induced TNF-α level (murine primary T cells): partially reduced
